Test systems include DLD-1 colon; DMS 114 small cell lung; DMS 273 small cell lung; HOP-18 NSCLC; KM20L2 colon; LXFL 529 NSCLC; RXF-631 renal; XF 498 CNS; MDA-N.
Common to all, as to assay: growth of human tumour cells (NCI), 48 h

Structures are written as SMILES.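 Assay format: 96-well plates, 48-hour exposure. At the TGI there is no net growth.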

In the case of `C=C=C(C(=O)OC)S(=O)c1ccc([N+](=O)[O-])cc1[N+](=O)[O-]` (stereo not drawn), the TGI in the test on DLD-1 colon is 29.7 µM; in the test on DMS 114 small cell lung, 45.6 µM; in the test on DMS 273 small cell lung, 64.1 µM; in the test on HOP-18 NSCLC it was 98.7 µM; in the test with KM20L2 colon it was 63.8 µM; in the test on LXFL 529 NSCLC, 38 µM. The TGI in the test with RXF-631 renal was above 69.7 µM; with XF 498 CNS, above 71.2 µM.
Regarding `CCN(CC)c1ccc2c(c1)Nc1cc(=C(C#N)C#N)c3ccccc3c1=N2`, the TGI in the test on DLD-1 colon, with DMS 114 small cell lung, with DMS 273 small cell lung, in the test on HOP-18 NSCLC, in the test on KM20L2 colon and in the test on LXFL 529 NSCLC was above 100 µM throughout. The TGI with RXF-631 renal and in the test with XF 498 CNS was above 100 µM each time.
For `O=C1CCC(O)=C1O`, the TGI in the test with DLD-1 colon, in the test with DMS 114 small cell lung, in the test on DMS 273 small cell lung, with HOP-18 NSCLC, in the test on KM20L2 colon and in the test with LXFL 529 NSCLC was above 100 µM in each case. The TGI with RXF-631 renal and in the test on XF 498 CNS was above 100 µM in each case.
For `O=Cc1ccc(-c2cccs2)s1`, the TGI with DLD-1 colon was above 74.9 µM; with DMS 114 small cell lung, above 100 µM; in the test with DMS 273 small cell lung it was above 100 µM; with HOP-18 NSCLC it was above 100 µM; in the test with KM20L2 colon, above 100 µM; in the test on LXFL 529 NSCLC, 4.51 µM. In addition, the TGI with MDA-N is above 100 µM; with RXF-631 renal, 12.9 µM; in the test on XF 498 CNS, 11.5 µM.

The values above are taken from PubChem BioAssay (NCI).
